# Data reported in publication PMC3382171 (PLoS ONE, 2012).
# How the values were obtained:
# Experiment in all cases: biochemical
# Conditions in all cases: read-out: Dundee KSS % inhibition at 1uM
# deltaPH-PKBalpha = biological target: T1, deltaPH-PKBalpha (Homo sapiens, UniProt P31749)
# T1 construct: gene AKT1; delta PH
# Method: (§1) The METi and RAFi were screened against kinase panels (SelectScreen, Invitrogen; University of Dundee, Division of Signal Transduction Therapy, UK; Upstate Biotechnology/Millipore, Billerica, MA). In these selectivity assays the concentration of ATP was set to the Km value of ATP for each kinase tested to allow for a relative potency comparison between the various kinases. The compounds were tested at 1 µM final concentration. […] (A) Kinase selectivity screen (KSS) performed at Upstate Biotechnology. […] (B) KSS performed at University of Dundee (Division of Signal Transduction Therapy). […] (PDF) Click here for additional data file.
# MARK3 = MARK3 (Homo sapiens, UniProt P27448)
# Method: as §1
# DYRK2 = biological target: T2, DYRK2 (Homo sapiens, UniProt Q92630)
# T2 sequence (Q92630 1-601): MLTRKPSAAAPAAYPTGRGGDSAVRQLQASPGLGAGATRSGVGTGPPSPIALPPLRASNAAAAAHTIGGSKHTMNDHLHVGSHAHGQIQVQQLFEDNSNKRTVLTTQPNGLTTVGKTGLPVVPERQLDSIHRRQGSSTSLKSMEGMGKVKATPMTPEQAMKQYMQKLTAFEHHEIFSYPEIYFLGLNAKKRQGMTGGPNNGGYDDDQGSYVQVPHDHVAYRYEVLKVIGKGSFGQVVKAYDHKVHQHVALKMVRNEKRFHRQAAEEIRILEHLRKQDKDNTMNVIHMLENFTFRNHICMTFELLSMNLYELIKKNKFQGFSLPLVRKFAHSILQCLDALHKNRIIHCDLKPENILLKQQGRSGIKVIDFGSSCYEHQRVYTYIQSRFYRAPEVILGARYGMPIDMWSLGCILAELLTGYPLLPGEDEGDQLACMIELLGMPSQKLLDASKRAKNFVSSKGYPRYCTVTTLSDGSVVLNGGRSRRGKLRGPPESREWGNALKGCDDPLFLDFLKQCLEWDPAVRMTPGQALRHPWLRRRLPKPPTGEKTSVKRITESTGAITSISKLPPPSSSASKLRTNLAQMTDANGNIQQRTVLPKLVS
# Method: as §1
# rat DYRK1A = rat DYRK1A (Rattus norvegicus, UniProt Q63470)
# Method: as §1
# CAMKKB = biological target: T3, CAMKKB (Homo sapiens, UniProt Q96RR4)
# T3 construct: gene CAMKK2
# Method: as §1
# DYRK3 = DYRK3 (Homo sapiens, UniProt O43781)
# Method: as §1
# ERK8 = biological target: T4, ERK8 (Homo sapiens, UniProt Q8TD08)
# T4 construct: gene MAPK15
# Method: as §1
# SRPK1 = SRPK1 (Homo sapiens, UniProt Q96SB4)
# Method: as §1
# NEK2a = biological target: T5, NEK2a (Homo sapiens, UniProt P51955)
# T5 construct: gene NEK2; isoform A
# Method: as §1
# MAPKAP-K1b = biological target: T6, MAPKAP-K1b (Homo sapiens, UniProt P51812)
# T6 construct: gene RPS6KA3
# Method: as §1
# IKKbeta = biological target: T7, IKKbeta (Homo sapiens, UniProt O14920)
# T7 construct: gene IKBKB
# Method: as §1
# MKK1 = biological target: T8, MKK1 (Homo sapiens, UniProt Q02750)
# T8 construct: gene MAP2K1
# Method: as §1
# MNK1 = biological target: T9, MNK1 (Homo sapiens, UniProt Q9BUB5)
# T9 construct: gene MKNK1
# Method: as §1
# CAMK-1 = biological target: T10, CAMK-1 (Homo sapiens, UniProt Q14012)
# T10 construct: gene CAMK1
# Method: as §1
# NEK6 = NEK6 (Homo sapiens, UniProt Q9HC98)
# Method: as §1
# PKCalpha = biological target: T11, PKCalpha (Homo sapiens, UniProt P17252)
# T11 construct: gene PRKCA
# Method: as §1
# SAPK4/p38d = biological target: T12, SAPK4/p38d (Homo sapiens, UniProt O15264)
# T12 construct: gene MAPK13
# Method: as §1
# SAPK2A/p38 = biological target: T13, SAPK2A/p38 (Homo sapiens, UniProt Q16539)
# T13 construct: gene MAPK14
# Method: as §1
# MAPK1/ERK2 = MAPK1/ERK2 (Homo sapiens, UniProt P28482)
# Method: as §1
# MSK1 = biological target: T14, MSK1 (Homo sapiens, UniProt O75582)
# T14 construct: gene RPS6KA5
# Method: as §1
# PIM3 = PIM3 (Homo sapiens, UniProt Q86V86)
# Method: as §1
# CAMKKa = biological target: T15, CAMKKa (Homo sapiens, UniProt Q8N5S9)
# T15 construct: gene CAMKK1
# Method: as §1
# PRK2 = biological target: T16, PRK2 (Homo sapiens, UniProt Q16513)
# T16 construct: gene PKN2
# Method: as §1
# PBK = PBK (Homo sapiens, UniProt Q96KB5)
# Method: as §1
# CSK = CSK (Homo sapiens, UniProt P41240)
# Method: as §1
# CHK1 = biological target: T17, CHK1 (Homo sapiens, UniProt O14757)
# T17 construct: gene CHEK1
# Method: as §1
# MAPK1/ERK2, sequence (P28482 whole entry): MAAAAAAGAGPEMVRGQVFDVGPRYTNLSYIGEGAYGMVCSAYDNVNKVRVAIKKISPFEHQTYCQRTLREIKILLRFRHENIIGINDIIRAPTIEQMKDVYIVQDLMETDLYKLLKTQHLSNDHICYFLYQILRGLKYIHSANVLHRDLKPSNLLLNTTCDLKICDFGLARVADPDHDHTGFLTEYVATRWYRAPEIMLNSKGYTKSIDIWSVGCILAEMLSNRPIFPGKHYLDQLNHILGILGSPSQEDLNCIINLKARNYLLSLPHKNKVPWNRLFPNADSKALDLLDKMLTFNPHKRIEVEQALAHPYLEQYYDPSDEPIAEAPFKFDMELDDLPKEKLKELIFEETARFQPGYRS
# T10 sequence (Q14012 whole entry): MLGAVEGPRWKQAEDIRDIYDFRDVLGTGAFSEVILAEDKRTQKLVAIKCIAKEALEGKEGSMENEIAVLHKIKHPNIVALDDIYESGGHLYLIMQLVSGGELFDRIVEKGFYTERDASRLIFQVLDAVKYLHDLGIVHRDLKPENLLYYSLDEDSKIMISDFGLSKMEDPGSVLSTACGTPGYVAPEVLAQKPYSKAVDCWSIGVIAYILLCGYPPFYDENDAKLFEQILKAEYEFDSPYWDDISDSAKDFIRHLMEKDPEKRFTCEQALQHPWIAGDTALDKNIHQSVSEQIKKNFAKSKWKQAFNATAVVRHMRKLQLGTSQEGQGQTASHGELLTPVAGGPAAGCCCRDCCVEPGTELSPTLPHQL
# MARK3, sequence (P27448 whole entry): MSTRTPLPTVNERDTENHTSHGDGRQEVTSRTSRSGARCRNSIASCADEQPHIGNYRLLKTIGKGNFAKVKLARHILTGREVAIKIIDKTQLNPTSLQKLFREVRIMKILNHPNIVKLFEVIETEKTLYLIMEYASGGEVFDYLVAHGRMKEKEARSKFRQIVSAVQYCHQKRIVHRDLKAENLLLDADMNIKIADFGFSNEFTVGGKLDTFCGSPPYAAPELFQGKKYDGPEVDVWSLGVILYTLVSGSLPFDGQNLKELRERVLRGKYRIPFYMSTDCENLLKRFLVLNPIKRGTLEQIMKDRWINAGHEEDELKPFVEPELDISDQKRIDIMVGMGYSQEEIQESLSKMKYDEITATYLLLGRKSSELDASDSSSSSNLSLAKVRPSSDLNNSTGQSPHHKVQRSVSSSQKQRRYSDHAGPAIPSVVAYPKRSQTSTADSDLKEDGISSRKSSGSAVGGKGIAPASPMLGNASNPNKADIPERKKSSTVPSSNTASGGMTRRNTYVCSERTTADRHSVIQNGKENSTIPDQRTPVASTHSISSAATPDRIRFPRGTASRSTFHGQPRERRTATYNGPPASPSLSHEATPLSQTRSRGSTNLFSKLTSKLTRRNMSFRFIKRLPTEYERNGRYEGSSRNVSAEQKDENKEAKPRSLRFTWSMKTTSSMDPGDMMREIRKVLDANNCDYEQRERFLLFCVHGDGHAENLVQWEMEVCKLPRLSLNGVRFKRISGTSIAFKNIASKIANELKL
# SRPK1, sequence (Q96SB4 whole entry): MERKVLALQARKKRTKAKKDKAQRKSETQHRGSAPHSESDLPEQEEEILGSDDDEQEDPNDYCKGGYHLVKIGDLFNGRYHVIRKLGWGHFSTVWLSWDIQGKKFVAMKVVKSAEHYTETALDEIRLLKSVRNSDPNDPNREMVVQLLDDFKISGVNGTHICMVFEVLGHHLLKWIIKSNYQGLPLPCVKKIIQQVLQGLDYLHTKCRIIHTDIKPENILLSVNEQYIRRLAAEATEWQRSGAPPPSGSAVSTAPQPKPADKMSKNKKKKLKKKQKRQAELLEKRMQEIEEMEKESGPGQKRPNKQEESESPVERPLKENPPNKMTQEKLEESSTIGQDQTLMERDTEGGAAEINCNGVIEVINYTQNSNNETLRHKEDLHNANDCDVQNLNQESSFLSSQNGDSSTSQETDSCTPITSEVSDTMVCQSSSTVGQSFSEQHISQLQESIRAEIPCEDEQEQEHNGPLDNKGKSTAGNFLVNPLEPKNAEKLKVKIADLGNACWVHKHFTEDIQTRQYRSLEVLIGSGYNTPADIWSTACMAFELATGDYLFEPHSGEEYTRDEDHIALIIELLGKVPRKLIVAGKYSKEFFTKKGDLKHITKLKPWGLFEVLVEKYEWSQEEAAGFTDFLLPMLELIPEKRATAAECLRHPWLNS
# T13 sequence (Q16539 whole entry): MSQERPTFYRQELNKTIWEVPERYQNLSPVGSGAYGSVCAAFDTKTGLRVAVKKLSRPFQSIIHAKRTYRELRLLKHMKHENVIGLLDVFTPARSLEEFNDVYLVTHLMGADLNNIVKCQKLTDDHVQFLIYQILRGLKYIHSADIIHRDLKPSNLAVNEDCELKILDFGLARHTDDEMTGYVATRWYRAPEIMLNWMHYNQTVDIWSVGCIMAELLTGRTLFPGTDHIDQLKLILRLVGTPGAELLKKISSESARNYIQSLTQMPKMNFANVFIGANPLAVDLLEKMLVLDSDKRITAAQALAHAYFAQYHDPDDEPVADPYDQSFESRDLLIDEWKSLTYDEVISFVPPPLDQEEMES
# T12 sequence (O15264 whole entry): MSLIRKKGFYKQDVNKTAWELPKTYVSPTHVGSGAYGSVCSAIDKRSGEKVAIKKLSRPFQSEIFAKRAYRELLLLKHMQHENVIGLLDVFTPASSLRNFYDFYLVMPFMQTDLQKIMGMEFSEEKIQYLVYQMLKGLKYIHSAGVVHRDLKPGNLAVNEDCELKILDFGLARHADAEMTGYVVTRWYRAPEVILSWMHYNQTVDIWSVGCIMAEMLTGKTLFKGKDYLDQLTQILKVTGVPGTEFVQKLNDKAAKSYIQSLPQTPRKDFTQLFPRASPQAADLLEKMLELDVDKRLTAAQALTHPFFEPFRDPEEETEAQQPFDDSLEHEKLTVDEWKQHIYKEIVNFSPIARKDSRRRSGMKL
# T7 sequence (O14920 whole entry): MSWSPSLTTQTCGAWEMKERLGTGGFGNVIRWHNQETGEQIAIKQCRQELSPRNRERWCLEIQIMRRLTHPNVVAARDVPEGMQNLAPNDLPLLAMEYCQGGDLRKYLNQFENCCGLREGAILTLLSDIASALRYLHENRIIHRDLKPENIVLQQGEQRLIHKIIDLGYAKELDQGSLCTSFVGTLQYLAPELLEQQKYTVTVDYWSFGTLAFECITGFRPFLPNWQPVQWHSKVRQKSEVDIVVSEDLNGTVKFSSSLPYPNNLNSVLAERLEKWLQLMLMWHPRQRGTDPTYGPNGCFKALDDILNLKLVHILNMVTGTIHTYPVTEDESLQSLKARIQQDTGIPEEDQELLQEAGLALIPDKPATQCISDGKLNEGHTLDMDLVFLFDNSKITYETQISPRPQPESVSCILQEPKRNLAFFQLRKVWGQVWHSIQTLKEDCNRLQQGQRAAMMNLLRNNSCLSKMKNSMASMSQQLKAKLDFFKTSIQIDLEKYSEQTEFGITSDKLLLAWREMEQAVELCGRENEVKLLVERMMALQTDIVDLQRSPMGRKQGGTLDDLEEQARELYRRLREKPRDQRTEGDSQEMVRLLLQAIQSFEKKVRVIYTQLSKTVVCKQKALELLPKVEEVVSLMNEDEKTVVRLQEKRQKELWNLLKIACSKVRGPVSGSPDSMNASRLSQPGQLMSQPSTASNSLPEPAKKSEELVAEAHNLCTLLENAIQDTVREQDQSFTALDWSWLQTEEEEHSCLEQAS
# T17 sequence (O14757 whole entry): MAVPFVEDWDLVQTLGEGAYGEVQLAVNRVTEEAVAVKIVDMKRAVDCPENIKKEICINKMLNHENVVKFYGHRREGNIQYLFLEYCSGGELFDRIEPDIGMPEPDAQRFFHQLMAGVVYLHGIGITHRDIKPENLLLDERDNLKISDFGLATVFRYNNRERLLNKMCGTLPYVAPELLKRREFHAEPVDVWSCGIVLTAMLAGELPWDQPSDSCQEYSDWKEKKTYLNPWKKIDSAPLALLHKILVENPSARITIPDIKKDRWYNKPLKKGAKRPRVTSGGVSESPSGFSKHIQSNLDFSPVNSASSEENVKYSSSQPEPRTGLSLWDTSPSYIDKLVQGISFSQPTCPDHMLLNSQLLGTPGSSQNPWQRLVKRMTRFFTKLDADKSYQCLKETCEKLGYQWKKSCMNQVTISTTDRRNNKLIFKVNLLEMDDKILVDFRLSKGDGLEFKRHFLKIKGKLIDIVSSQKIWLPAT
# T9 sequence (Q9BUB5 whole entry): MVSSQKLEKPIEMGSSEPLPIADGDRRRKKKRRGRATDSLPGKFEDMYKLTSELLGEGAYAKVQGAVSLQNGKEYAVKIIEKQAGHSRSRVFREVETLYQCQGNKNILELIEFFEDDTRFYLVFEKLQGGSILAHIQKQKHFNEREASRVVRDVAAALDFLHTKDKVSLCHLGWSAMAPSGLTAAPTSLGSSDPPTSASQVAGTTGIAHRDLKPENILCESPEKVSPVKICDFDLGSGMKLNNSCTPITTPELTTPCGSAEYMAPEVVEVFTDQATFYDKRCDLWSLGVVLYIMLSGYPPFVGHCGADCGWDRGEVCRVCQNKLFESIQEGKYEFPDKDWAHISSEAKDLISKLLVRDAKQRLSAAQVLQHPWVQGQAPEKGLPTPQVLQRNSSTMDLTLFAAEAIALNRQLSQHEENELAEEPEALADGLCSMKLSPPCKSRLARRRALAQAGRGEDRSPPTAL
structure (smiles),measurement,setting,value
"OCCn1cc(-c2cnc3nnn(Cc4ccc5ncccc5c4)c3n2)cn1 [METi, PF-04217903]",inhibition at 1 µM,deltaPH-PKBalpha,3.5%
same,inhibition at 1 µM,MARK3,4.4%
same,inhibition at 1 µM,DYRK2,14.8%
same,inhibition at 1 µM,rat DYRK1A,2.39%
same,inhibition at 1 µM,CAMKKB,16.2%
same,inhibition at 1 µM,DYRK3,-18.2%
same,inhibition at 1 µM,ERK8,14.8%
same,inhibition at 1 µM,SRPK1,13.5%
same,inhibition at 1 µM,NEK2a,-7.91%
same,inhibition at 1 µM,MAPKAP-K1b,24.9%
same,inhibition at 1 µM,IKKbeta,22.5%
same,inhibition at 1 µM,MKK1,25.2%
same,inhibition at 1 µM,MNK1,-8.48%
same,inhibition at 1 µM,CAMK-1,12.8%
same,inhibition at 1 µM,NEK6,8.99%
same,inhibition at 1 µM,PKCalpha,14.3%
same,inhibition at 1 µM,SAPK4/p38d,4.67%
same,inhibition at 1 µM,SAPK2A/p38,2.86%
same,inhibition at 1 µM,MAPK1/ERK2,-13%
same,inhibition at 1 µM,MSK1,5.55%
same,inhibition at 1 µM,PIM3,10.7%
same,inhibition at 1 µM,CAMKKa,8.9%
same,inhibition at 1 µM,PRK2,11.7%
same,inhibition at 1 µM,PBK,5.14%
same,inhibition at 1 µM,CSK,5.77%
same,inhibition at 1 µM,CHK1,-1.96%
